We go through 37 compounds from PubChem BioAssay (NCI).

“And” between values parts separate entries of the source, which are not always exact repeats. Equal values may be shown once.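 Each compound was tested at five concentrations against cells in 96-well plates for 48 hours. At the GI50, growth is halved. TGI: total growth inhibition.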

This test concerns MDA-MB-468 breast. The test is described as follows: NCI anticancer screen, dose series, 48 h.
Consider `CCCCCCCCCCCCCCCCCCOc1ccccc1CC(=O)OCC[N+]1(C)CCCCC1`, for which the GI50 was 1.53 µM and the TGI amounted to 3.83 µM.

In the case of `COc1cc(NC(C)CCCNC2CN3CCC2CC3)c2ncccc2c1` (configuration not stated), the GI50 was 1.71 µM and the TGI was 3.84 µM.

As for `COc1ccc(C(=O)OC2C(OC3C(O)COC(O[C@H]4C[C@H]5[C@@H]6CC=C7C[C@@H](O)CC[C@]7(C)[C@H]6CC[C@]5(C)[C@H]4[C@H](C)C(=O)CCC(C)C)C3OC(N)=O)OCC(O)C2O)cc1` (some centres not stated), the GI50 is 0.0781 µM and the TGI is 1.6 µM.

As for `COc1cc(CSc2nc3ccc(C)cc3c(=O)n2-c2ccccc2)cc(OC)c1OC`, the GI50 was 0.266 µM and the TGI amounted to 2.11 µM.

As for `O=C(CCCCCCC(=O)Nc1ccccc1)NO`, the GI50 was 0.361 µM and 0.899 µM; the TGI is 12.3 µM and 10.8 µM.

Take `CC/C=C1/C(=O)C=C[C@@H]1C/C=C\CCCC(=O)OC`: the GI50 was 2.31 µM and the TGI turned out to be 6.04 µM.

`O=C(CCCCCCCCC(=O)N/N=C\c1ccccc1O)N/N=C\c1ccccc1O`: the GI50 is 1.62 µM and the TGI came out at 5.23 µM.

On to `CN(C)CCN1C(=O)c2ccccc2N(C)c2ccccc21`, for which the GI50 is above 100 µM and the TGI is above 100 µM.

As to `CC(C)(C)OC(=O)N1CCN(CCn2cc(C(F)(F)F)c3c(Cl)ncnc32)CC1`, the GI50 is 1.92 µM and the TGI came to 3.77 µM.

For `CC(C)(C)c1ccc(Oc2nccc(-c3c(-c4ccc(F)cc4)ncn3C3CCNCC3)n2)cc1`, the GI50 was 2.58 µM and the TGI came to 5.97 µM.

`c1ccc2[nH]c(-c3ccc(-c4nccc5c4[nH]c4ccccc45)cc3)nc2c1`: the GI50 is 2.52 µM and the TGI was determined as 6.62 µM.

On to `CCN(CC)CCCC(C)Nc1ccnc2cc(Oc3ccccc3)ccc12` (configuration not stated), for which the GI50 was 3.06 µM and 3.95 µM; the TGI was 13.3 µM and 15.1 µM.

In the case of `Nc1c(C(=O)c2cccc(-c3ccncc3)c2)cnn1-c1ccc(F)cc1F`, the GI50 is 2.18 µM and the TGI came to 17.9 µM.

With `C=C1C(=O)O[C@H]2[C@H]1CC/C(COC(=O)NCc1ccc(Cn3c(=O)sn(CCCl)c3=O)cc1)=C\CC[C@@]1(C)O[C@@H]21`, the GI50 is 1.78 µM and the TGI is 4.52 µM.

`COc1ccc(-c2cc(=O)[nH]c3c(OC)c4ccccc4c(OC)c23)cc1`: the GI50 was 0.557 µM.

`CC(C)[C@H](N)C(=O)N1CCC[C@H]1B(O)O`: the GI50 is above 100 µM and the TGI was above 100 µM.

In the case of `C#C[C@]1(O)CC[C@H]2[C@@H]3CC=C4c5sc(Nc6ccncc6)nc5CC[C@]4(C)[C@H]3CC[C@@]21C`, the GI50 is 0.477 µM and the TGI came to 2.27 µM.

Take `C=C1C(=O)O[C@H]2[C@H]1CC/C(COC(=O)NCc1cn(C)c3ccccc13)=C\CC[C@@]1(C)O[C@@H]21`: the GI50 is 0.836 µM and the TGI stood at 2.95 µM.

Consider `CCN(CC)CCCCNc1c2ccccc2[n+](C)c2c1[nH]c1ccccc12`, for which the GI50 is 0.222 µM and the TGI came out at 4.85 µM.

Regarding `COc1c(C)c2c(c(O)c1C/C=C(\C)CCC(=O)O)C(=O)OC2`, the GI50 is 0.515 µM and the TGI is above 100 µM.

For `COc1ccc2[nH]c(O)c(N=NC(=O)c3oc4ccccc4c3C)c2c1`, the GI50 is 2.6 µM and the TGI was found to be 6.53 µM.

Take `CN[C@@H](C)C(=O)N[C@H](C(=O)N1CCC[C@H]1C(=O)Nc1snnc1-c1ccccc1)C1CCCCC1`: the GI50 is 16 µM and the TGI was 59.4 µM.

For `CCN(CC)c1ccc(/C=N/NC(=O)c2ccc(NS(C)(=O)=O)cc2)c(O)c1`, the GI50 is 0.331 µM and the TGI is 2.93 µM.

On to `COc1ccc(C(=O)c2cc(OC)c(OC)c(OC)c2)cc1OC(=O)CCl`, for which the GI50 is 0.787 µM.

Take `COc1ccc(-c2nc(-c3nc4ccc(OC)cc4[nH]3)c3ccccn23)cc1`: the GI50 is 4.08 µM and the TGI is 84.5 µM.

As to `Cc1cc(O)c(C(C)C)cc1S(=O)(=O)O` (tested in a mixture with another compound), the GI50 was 0.273 µM and the TGI was determined as 1.18 µM.

Turning to `C[C@H]1[C@H](C)CC[C@]2(CO)CC[C@]3(C)C(=CC[C@@H]4[C@@]5(C)CCCNC(C)(C)[C@@H]5CC[C@]43C)[C@H]12`, the GI50 was 1.7 µM and the TGI was 3.44 µM.

Regarding `Cc1c(C(N)=O)sc2c1C(=O)N(Cc1ccccc1)C1=NN=C(c3ccc(Cl)cc3)CN12`, the GI50 is 1.93 µM and the TGI amounted to 7.54 µM.

With `C=C1CCC2C3(C)COC(c4ccc(N(C)C)cc4)OC3CCC2(C)C1C/C=C1/C(=O)OCC1O` (configuration not stated), the GI50 is 1.44 µM and the TGI came to 3.09 µM.

Consider `C#Cc1c(F)ccc2cc(O)cc(-c3ncc4c(N5CC6CCC(C5)N6)nc(OC[C@@]56CCCN5C[C@H](F)C6)nc4c3F)c12`, for which the GI50 was 4.78 µM and the TGI was found to be 11.9 µM.

For the compound `COC(=O)c1nc(-c2ccccc2)oc1S(=O)(=O)Cc1ccccc1`, the GI50 is 1.85 µM and the TGI was determined as 4.02 µM.

Consider `O=C(NNc1nc2cc(F)ccc2n2c(CO)ccc12)c1cnccn1`, for which the GI50 was 0.448 µM and the TGI is 3.34 µM.

For the compound `COc1cnc2c(c1)C(=O)c1c-2n(CCCn2ccnc2)c(=O)c2cc(F)ccc12`, the GI50 is 0.0197 µM and the TGI worked out at 0.154 µM.

In the case of `C=C(C)C(=O)Nc1ccc(NC(C)C)cc1`, the GI50 is above 100 µM and the TGI is above 100 µM.

In the case of `FC(F)(F)c1ccc(Nc2nc(-c3c(C(F)(F)F)nc4ccccn34)cs2)cc1`, the GI50 was 0.16 µM and the TGI is 1.04 µM.

As for `CC(C)(C)n1cc(-c2ccnc(NCCCNS(=O)(=O)c3ccc(C(F)(F)F)cc3)c2)c(-c2cccc(O)c2)n1`, the GI50 was 1.88 µM and the TGI was found to be 4.06 µM.

`COc1ccc(-c2c[nH]c(C(=O)O)c2-c2cc(OC)c(OC)c(OC)c2)cc1`: the GI50 is 2.24 µM and the TGI came to 6.78 µM.
